# Assay results taken from PubChem BioAssay (NCI).
#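 In this assay, cells in 96-well plates receive the compound at five concentrations for 48 hours. Endpoints are linearly interpolated between the surrounding concentrations. Here, GI50 denotes the concentration required for 50% inhibition of growth. At the TGI there is no net growth.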
# Assays:
# Experiment in all cases: inhibition of tumour cell growth, NCI panel, 48 h
# HOP-92 NSCLC = test system: HOP-92 NSCLC
# RXF 393 renal = test system: RXF 393 renal
# SR leukemia = test system: SR leukemia
# SK-OV-3 ovarian = test system: SK-OV-3 ovarian
# NCI-H522 lung = test system: NCI-H522 lung
# NCI/ADR-RES ovarian = test system: NCI/ADR-RES ovarian
# A498 renal = test system: A498 renal
# UO-31 renal = test system: UO-31 renal
# SNB-19 CNS = test system: SNB-19 CNS
# SF-295 CNS = test system: SF-295 CNS
# IGROV1 ovarian = test system: IGROV1 ovarian
# MCF7 breast = test system: MCF7 breast
# HCT-116 colon = test system: HCT-116 colon
# OVCAR-5 ovarian = test system: OVCAR-5 ovarian
# SF-268 CNS = test system: SF-268 CNS
# SK-MEL-5 melanoma = test system: SK-MEL-5 melanoma
# MALME-3M melanoma = test system: MALME-3M melanoma
# SN12C renal = test system: SN12C renal
# PC-3 prostate = test system: PC-3 prostate
# HCC-2998 colon = test system: HCC-2998 colon
# HS 578T breast = test system: HS 578T breast
# CCRF-CEM leukemia = test system: CCRF-CEM leukemia
# HL-60(TB) leukemia = test system: HL-60(TB) leukemia
# T-47D breast = test system: T-47D breast
# ACHN renal = test system: ACHN renal
# DU-145 prostate = test system: DU-145 prostate
# KM12 colon = test system: KM12 colon
# EKVX NSCLC = test system: EKVX NSCLC
# SK-MEL-28 melanoma = test system: SK-MEL-28 melanoma
# HT29 colon = test system: HT29 colon
# HOP-62 NSCLC = test system: HOP-62 NSCLC
# OVCAR-8 ovarian = test system: OVCAR-8 ovarian
# UACC-257 melanoma = test system: UACC-257 melanoma
# MDA-MB-231 breast = test system: MDA-MB-231 breast
# SK-MEL-2 melanoma = test system: SK-MEL-2 melanoma
# RPMI-8226 leukemia = test system: RPMI-8226 leukemia
# UACC-62 melanoma = test system: UACC-62 melanoma
# COLO 205 colon = test system: COLO 205 colon
# M14 melanoma = test system: M14 melanoma
# TK-10 renal = test system: TK-10 renal
# MDA-MB-435 = test system: MDA-MB-435
# OVCAR-3 ovarian = test system: OVCAR-3 ovarian
# SNB-75 CNS = test system: SNB-75 CNS
# OVCAR-4 ovarian = test system: OVCAR-4 ovarian
# MOLT-4 leukemia = test system: MOLT-4 leukemia
# K-562 leukemia = test system: K-562 leukemia
# 786-0 renal = test system: 786-0 renal
# U251 CNS = test system: U251 CNS
# SF-539 CNS = test system: SF-539 CNS
# A549 NSCLC = test system: A549 NSCLC
# HCT-15 colon = test system: HCT-15 colon
# NCI-H460 lung = test system: NCI-H460 lung
# NCI-H226 lung = test system: NCI-H226 lung
# BT-549 breast = test system: BT-549 breast
# SW-620 colon = test system: SW-620 colon
# NCI-H23 lung = test system: NCI-H23 lung
# LOX IMVI melanoma = test system: LOX IMVI melanoma
# CAKI-1 renal = test system: CAKI-1 renal
smiles,measurement,setting,value
COc1ccc(C2C(C#N)=C(N)Oc3c2sc2c(F)cccc32)cc1 (stereo unspecified),GI50,HOP-92 NSCLC,4.32 µM
same,TGI,HOP-92 NSCLC,21.2 µM
same,GI50,RXF 393 renal,1.81 µM
same,TGI,RXF 393 renal,5.77 µM
same,GI50,SR leukemia,0.706 µM
same,TGI,SR leukemia,14.2 µM
same,GI50,SK-OV-3 ovarian,4.35 µM
same,TGI,SK-OV-3 ovarian,36.7 µM
same,GI50,NCI-H522 lung,0.799 µM
same,TGI,NCI-H522 lung,6.35 µM
same,GI50,NCI/ADR-RES ovarian,0.881 µM
same,TGI,NCI/ADR-RES ovarian,5.96 µM
same,GI50,A498 renal,2.1 µM
same,TGI,A498 renal,15.6 µM
same,GI50,UO-31 renal,4.66 µM
same,TGI,UO-31 renal,17.7 µM
same,GI50,SNB-19 CNS,2.99 µM
same,TGI,SNB-19 CNS,16.8 µM
same,GI50,SF-295 CNS,2.1 µM
same,TGI,SF-295 CNS,11.5 µM
same,GI50,IGROV1 ovarian,2.9 µM
same,TGI,IGROV1 ovarian,19.5 µM
same,GI50,MCF7 breast,0.711 µM
same,TGI,MCF7 breast,13.6 µM
same,GI50,HCT-116 colon,2.7 µM
same,TGI,HCT-116 colon,12.1 µM
same,GI50,OVCAR-5 ovarian,8.53 µM
same,TGI,OVCAR-5 ovarian,27.6 µM
same,GI50,SF-268 CNS,3.95 µM
same,TGI,SF-268 CNS,19.6 µM
same,GI50,SK-MEL-5 melanoma,3.93 µM
same,TGI,SK-MEL-5 melanoma,16.3 µM
same,GI50,MALME-3M melanoma,11.6 µM
same,TGI,MALME-3M melanoma,26.3 µM
same,GI50,SN12C renal,3.94 µM
same,TGI,SN12C renal,16.5 µM
same,GI50,PC-3 prostate,2.36 µM
same,TGI,PC-3 prostate,11.7 µM
same,GI50,HCC-2998 colon,3.04 µM
same,TGI,HCC-2998 colon,14 µM
same,GI50,HS 578T breast,2.81 µM
same,TGI,HS 578T breast,27 µM
same,GI50,CCRF-CEM leukemia,1.7 µM
same,TGI,CCRF-CEM leukemia,12.5 µM
same,GI50,HL-60(TB) leukemia,1.75 µM
same,TGI,HL-60(TB) leukemia,6.5 µM
same,GI50,T-47D breast,2.57 µM
same,TGI,T-47D breast,25.9 µM
same,GI50,ACHN renal,6.08 µM
same,TGI,ACHN renal,21.4 µM
same,GI50,DU-145 prostate,2.96 µM
same,TGI,DU-145 prostate,11.4 µM
same,GI50,KM12 colon,1.62 µM
same,TGI,KM12 colon,17.5 µM
same,GI50,EKVX NSCLC,4.7 µM
same,TGI,EKVX NSCLC,22.5 µM
same,GI50,SK-MEL-28 melanoma,8.25 µM
same,TGI,SK-MEL-28 melanoma,23.2 µM
same,GI50,HT29 colon,3.23 µM
same,TGI,HT29 colon,11.1 µM
same,GI50,HOP-62 NSCLC,1.75 µM
same,TGI,HOP-62 NSCLC,15.9 µM
same,GI50,OVCAR-8 ovarian,3.11 µM
same,TGI,OVCAR-8 ovarian,14.5 µM
same,GI50,UACC-257 melanoma,14.6 µM
same,TGI,UACC-257 melanoma,88.8 µM
same,GI50,MDA-MB-231 breast,3.77 µM
same,TGI,MDA-MB-231 breast,20.3 µM
same,GI50,SK-MEL-2 melanoma,3 µM
same,TGI,SK-MEL-2 melanoma,18.6 µM
same,GI50,RPMI-8226 leukemia,2.66 µM
same,TGI,RPMI-8226 leukemia,12.5 µM
same,GI50,UACC-62 melanoma,2.41 µM
same,TGI,UACC-62 melanoma,18.9 µM
same,GI50,COLO 205 colon,2.62 µM
same,TGI,COLO 205 colon,8.18 µM
same,GI50,M14 melanoma,1.34 µM
same,TGI,M14 melanoma,4.54 µM
same,GI50,TK-10 renal,5.69 µM
same,TGI,TK-10 renal,23.5 µM
same,GI50,MDA-MB-435,0.315 µM
same,TGI,MDA-MB-435,1.4 µM
same,GI50,OVCAR-3 ovarian,1.38 µM
same,TGI,OVCAR-3 ovarian,4.94 µM
same,GI50,SNB-75 CNS,2.42 µM
same,TGI,SNB-75 CNS,14.5 µM
same,GI50,OVCAR-4 ovarian,8.95 µM
same,TGI,OVCAR-4 ovarian,31 µM
same,GI50,MOLT-4 leukemia,2.62 µM
same,TGI,MOLT-4 leukemia,14 µM
same,GI50,K-562 leukemia,0.493 µM
same,TGI,K-562 leukemia,18.2 µM
same,GI50,786-0 renal,3.34 µM
same,TGI,786-0 renal,13 µM
same,GI50,U251 CNS,2.74 µM
same,TGI,U251 CNS,11.8 µM
same,GI50,SF-539 CNS,2.13 µM
same,TGI,SF-539 CNS,6.24 µM
same,GI50,A549 NSCLC,3.12 µM
same,TGI,A549 NSCLC,22.3 µM
same,GI50,HCT-15 colon,1.73 µM
same,TGI,HCT-15 colon,12.4 µM
same,GI50,NCI-H460 lung,2.59 µM
same,TGI,NCI-H460 lung,11.9 µM
same,GI50,NCI-H226 lung,14 µM
same,TGI,NCI-H226 lung,32.6 µM
same,GI50,BT-549 breast,4.65 µM
same,TGI,BT-549 breast,24 µM
same,GI50,SW-620 colon,1.82 µM
same,TGI,SW-620 colon,15.6 µM
same,GI50,NCI-H23 lung,3.6 µM
same,TGI,NCI-H23 lung,21.8 µM
same,GI50,LOX IMVI melanoma,2.4 µM
same,TGI,LOX IMVI melanoma,12.4 µM
CN(C)c1nc(N)nc(CCl)n1,TGI,HOP-92 NSCLC,45.6 µM
same,TGI,RXF 393 renal,> 100 µM
same,TGI,SR leukemia,65.8 µM
same,TGI,SK-OV-3 ovarian,> 100 µM
same,TGI,NCI-H522 lung,25 µM
same,TGI,NCI/ADR-RES ovarian,86.8 µM
same,TGI,A498 renal,70.8 µM
same,TGI,UO-31 renal,26.1 µM
same,TGI,SNB-19 CNS,> 100 µM
same,TGI,SF-295 CNS,> 100 µM
same,TGI,IGROV1 ovarian,35 µM
same,TGI,MCF7 breast,> 100 µM
same,TGI,HCT-116 colon,> 100 µM
same,TGI,OVCAR-5 ovarian,> 100 µM
same,TGI,SF-268 CNS,> 100 µM
same,TGI,SK-MEL-5 melanoma,90.6 µM
same,TGI,SN12C renal,> 100 µM
same,TGI,PC-3 prostate,> 100 µM
same,TGI,HCC-2998 colon,> 100 µM
same,TGI,HS 578T breast,> 100 µM
same,TGI,CCRF-CEM leukemia,58.6 µM
same,TGI,HL-60(TB) leukemia,78.2 µM
same,TGI,T-47D breast,> 100 µM
same,TGI,ACHN renal,39.7 µM
same,TGI,DU-145 prostate,> 100 µM
same,TGI,KM12 colon,> 100 µM
same,TGI,EKVX NSCLC,41.6 µM
same,TGI,SK-MEL-28 melanoma,> 100 µM
same,TGI,HT29 colon,> 100 µM
same,TGI,HOP-62 NSCLC,46.8 µM
same,TGI,OVCAR-8 ovarian,> 100 µM
same,TGI,UACC-257 melanoma,> 100 µM
same,TGI,MDA-MB-231 breast,72.4 µM
same,TGI,SK-MEL-2 melanoma,> 100 µM
same,TGI,RPMI-8226 leukemia,> 100 µM
same,TGI,UACC-62 melanoma,41.5 µM
same,TGI,COLO 205 colon,61.8 µM
same,TGI,M14 melanoma,> 100 µM
same,TGI,CAKI-1 renal,18 µM
same,TGI,TK-10 renal,> 100 µM
same,TGI,MDA-MB-435,> 100 µM
same,TGI,OVCAR-3 ovarian,49 µM
same,TGI,SNB-75 CNS,11.3 µM
same,TGI,OVCAR-4 ovarian,38.2 µM
same,TGI,MOLT-4 leukemia,> 100 µM
same,TGI,K-562 leukemia,84.4 µM
same,TGI,786-0 renal,58.3 µM
same,TGI,U251 CNS,> 100 µM
same,TGI,SF-539 CNS,60.2 µM
same,TGI,A549 NSCLC,> 100 µM
same,TGI,HCT-15 colon,93 µM
same,TGI,NCI-H460 lung,> 100 µM
same,TGI,NCI-H226 lung,> 100 µM
same,TGI,BT-549 breast,> 100 µM
same,TGI,SW-620 colon,87.7 µM
same,TGI,NCI-H23 lung,68.9 µM
same,TGI,LOX IMVI melanoma,21.9 µM
